According to PubChem BioAssay AID1963423 (Molecular Pharmacology Branch, DTP, NCI, 2024):

Tested on: 439559-082-T-J2-PDC complex spheroid growth
Experiment: Anticancer human tumor 439559-082-T-J2-PDC patient-derived colon adenocarcinoma cell line growth inhibition [Asc]
Conditions: for IC50: curve of first compound; for viability, T/C: stronger effect = lower value
Method in brief: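 Complex solid-tumor spheroids incorporating human endothelial and mesenchymal stem cells received single agents or combinations over half-log dilution ranges anchored to clinical Cmax.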
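Note: spheroids exposed to agents for 7 days starting day 3 after seeding.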
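Throughout, for viability, T/C: percent of DMSO vehicle control viability with 100% = vehicle.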

**Q.** Which results are given for `C#Cc1c(F)ccc2cc(O)cc(-c3ncc4c(N5CC6CCC(C5)N6)nc(OCC56CCCN5CC(F)C6)nc4c3F)c12` (configuration not stated) + CNC(C)C(=O)NC1CN(S(=O)(=O)c2cccc(S(=O)(=O)N3CCC4CCC(C(=O)NC(c5ccccc5)c5ccccc5)N4C(=O)C(NC(=O)C(C)NC)C3)c2)CCC2CCC(C(=O)NC(c3ccccc3)c3ccccc3)N2C1=O?
**A.** IC50 (second compound 0.00316 µM): 2 µM; IC50 (second compound 0.01 µM): 2.62 µM; IC50 (second compound 0.0316 µM): 1.66 µM; IC50 (second compound 0.1 µM): 1.91 µM; IC50 (second compound 0.316 µM): 1.03 µM; IC50 (second compound 1 µM): 0.269 µM; viability, T/C (second compound 0.00316 µM, first compound 0.0316 µM): 103%; viability, T/C (second compound 0.00316 µM, first compound 0.1 µM): 76.9%; viability, T/C (second compound 0.00316 µM, first compound 0.316 µM): 66.3%; viability, T/C (second compound 0.00316 µM, first compound 1 µM): 58.9%; viability, T/C (second compound 0.00316 µM, first compound 3.16 µM): 46.9%; viability, T/C (second compound 0.00316 µM, first compound 10 µM): 38.9%; viability, T/C (second compound 0.01 µM, first compound 0.0316 µM): 104%; viability, T/C (second compound 0.01 µM, first compound 0.1 µM): 82%; viability, T/C (second compound 0.01 µM, first compound 0.316 µM): 66.1%; viability, T/C (second compound 0.01 µM, first compound 1 µM): 62.9%; viability, T/C (second compound 0.01 µM, first compound 3.16 µM): 48.5%; viability, T/C (second compound 0.01 µM, first compound 10 µM): 39.8%; viability, T/C (second compound 0.0316 µM, first compound 0.0316 µM): 95%; viability, T/C (second compound 0.0316 µM, first compound 0.1 µM): 94.3%; viability, T/C (second compound 0.0316 µM, first compound 0.316 µM): 66.8%; viability, T/C (second compound 0.0316 µM, first compound 1 µM): 54.9%; viability, T/C (second compound 0.0316 µM, first compound 3.16 µM): 50%; viability, T/C (second compound 0.0316 µM, first compound 10 µM): 37.5%; viability, T/C (second compound 0.1 µM, first compound 0.0316 µM): 91.8%; viability, T/C (second compound 0.1 µM, first compound 0.1 µM): 73.8%; viability, T/C (second compound 0.1 µM, first compound 0.316 µM): 65.8%; viability, T/C (second compound 0.1 µM, first compound 1 µM): 60.1%; viability, T/C (second compound 0.1 µM, first compound 3.16 µM): 45.3%; viability, T/C (second compound 0.1 µM, first compound 10 µM): 34.3%; viability, T/C (second compound 0.316 µM, first compound 0.0316 µM): 84.7%; viability, T/C (second compound 0.316 µM, first compound 0.1 µM): 78.5%; viability, T/C (second compound 0.316 µM, first compound 0.316 µM): 59.4%; viability, T/C (second compound 0.316 µM, first compound 1 µM): 51.4%; viability, T/C (second compound 0.316 µM, first compound 3.16 µM): 40%; viability, T/C (second compound 0.316 µM, first compound 10 µM): 30.1%; viability, T/C (second compound 1 µM, first compound 0.0316 µM): 66%; viability, T/C (second compound 1 µM, first compound 0.1 µM): 55.2%; viability, T/C (second compound 1 µM, first compound 0.316 µM): 50.7%; viability, T/C (second compound 1 µM, first compound 1 µM): 40%; viability, T/C (second compound 1 µM, first compound 3.16 µM): 29%; viability, T/C (second compound 1 µM, first compound 10 µM): 21.6%
